From patent publication US12570666B2, “Furoindazole derivatives” (Bayer Aktiengesellschaft, priority 2019, dated 2026)

Target: T1, human GPR84 receptor (Homo sapiens, UniProt Q9NQS5)
T1 construct: frozen aliquots prepared by acCELLerate; host or cells: CHO-K1
Experiment: cAMP HTRF assay for identification of cellular GPR84 antagonists
Assay type: cell-based
Conditions: CHO-K1 cells stably expressing human GPR84; Forskolin + agonist 6-OAU (EC80); average or median values
Method in brief: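 Forskolin-stimulated CHO-K1 cells stably expressing human GPR84, agonist-suppressed cAMP measured by HTRF (665/620 ratio) after lysis. Compounds at 11 concentrations, 20 μM to 0.07 nM, duplicate; normalized to DMSO and no-agonist controls; IC50 by 4-parameter fit.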

T1 sequence (Q9NQS5 whole entry): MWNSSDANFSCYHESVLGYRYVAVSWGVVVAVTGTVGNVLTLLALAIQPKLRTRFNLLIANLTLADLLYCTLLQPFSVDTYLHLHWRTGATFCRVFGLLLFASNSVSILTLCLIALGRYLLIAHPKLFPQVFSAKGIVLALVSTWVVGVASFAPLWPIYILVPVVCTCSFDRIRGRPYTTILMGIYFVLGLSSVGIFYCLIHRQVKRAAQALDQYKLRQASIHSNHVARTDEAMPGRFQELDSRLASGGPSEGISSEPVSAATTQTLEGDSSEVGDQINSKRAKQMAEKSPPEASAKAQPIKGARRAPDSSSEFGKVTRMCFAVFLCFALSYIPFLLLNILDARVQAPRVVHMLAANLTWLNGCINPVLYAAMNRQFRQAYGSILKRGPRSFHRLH

Compound	IC50 [nM]
Cc1c(C(=O)NC[C@@H]2CCCO2)oc2c1-c1nn(CC3(F)CNC3)cc1CC2 [Example 157, 2-[(3-fluoroazetidin-3-yl)methyl]-8-methyl-N-[(2S)-tetrahydrofuran-2-ylmethyl]-4,5-dihydro-2H-furo[2,3-g]indazole-7-carboxamide]	180
Cc1c(C(=O)NC[C@@H]2CCCO2)oc2c1-c1nn(CC3CNC3)cc1CC2 [Example 158, 2-(azetidin-3-ylmethyl)-8-methyl-N-[(2S)-tetrahydrofuran-2-ylmethyl]-4,5-dihydro-2H-furo[2,3-g]indazole-7-carboxamide]	1550
Cc1c(C(=O)NC[C@@H]2COCCO2)oc2c1-c1nn(CC3CNC3)cc1CC2 [Example 159, 2-(azetidin-3-ylmethyl)-N-[(2R)-1,4-dioxan-2-ylmethyl]-8-methyl-4,5-dihydro-2H-furo[2,3-g]indazole-7-carboxamide]	1960
Cc1c(C(=O)NC[C@@H]2CCCO2)oc2c1-c1nn(CCN)cc1CC2 [Example 160, 2-(2-aminoethyl)-8-methyl-N-[(2S)-tetrahydrofuran-2-ylmethyl]-4,5-dihydro-2H-furo[2,3-g]indazole-7-carboxamide]	2540
Cc1c(C(=O)NC[C@@H]2COCCO2)oc2c1-c1nn(CCN)cc1CC2 [Example 161, 2-(2-aminoethyl)-N-[(2R)-1,4-dioxan-2-ylmethyl]-8-methyl-4,5-dihydro-2H-furo[2,3-g]indazole-7-carboxamide]	6520
Cc1c(C(=O)NC[C@@H]2CCCO2)oc2c1-c1nn(CCN3CCNCC3)cc1CC2 [Example 162, 8-methyl-2-[2-(piperazin-1-yl)ethyl]-N-[(2S)-tetrahydrofuran-2-ylmethyl]-4,5-dihydro-2H-furo[2,3-g]indazole-7-carboxamide]	6740
Cc1c(C(=O)NC[C@@H]2COCCO2)oc2c1-c1nn(CCN3CCNCC3)cc1CC2 [Example 163, N-[(2R)-1,4-dioxan-2-ylmethyl]-8-methyl-2-[2-(piperazin-1-yl)ethyl]-4,5-dihydro-2H-furo[2,3-g]indazole-7-carboxamide]	> 20000
CC(=O)N1CC(Cn2cc3c(n2)-c2c(oc(C(=O)NC[C@@H]4CCCO4)c2C)CC3)C1 [Example 164, 2-[(1-acetylazetidin-3-yl)methyl]-8-methyl-N-[(2S)-tetrahydrofuran-2-ylmethyl]-4,5-dihydro-2H-furo[2,3-g]indazole-7-carboxamide]	980
CC(=O)N1CC(F)(Cn2cc3c(n2)-c2c(oc(C(=O)NC[C@@H]4CCCO4)c2C)CC3)C1 [Example 165, 2-[(1-acetyl-3-fluoroazetidin-3-yl)methyl]-8-methyl-N-[(2S)-tetrahydrofuran-2-ylmethyl]-4,5-dihydro-2H-furo[2,3-g]indazole-7-carboxamide]	110
Cc1c(C(=O)NC[C@@H]2CCCO2)oc2c1-c1nn(CC3(F)CN(S(C)(=O)=O)C3)cc1CC2 [Example 166, 2-{[3-fluoro-1-(methylsulfonyl)azetidin-3-yl]methyl}-8-methyl-N-[(2S)-tetrahydrofuran-2-ylmethyl]-4,5-dihydro-2H-furo[2,3-g]indazole-7-carboxamide]	110
COC(=O)N1CC(F)(Cn2cc3c(n2)-c2c(oc(C(=O)NC[C@@H]4CCCO4)c2C)CC3)C1 [Example 167, methyl 3-fluoro-3-[(8-methyl-7-{[(2S)-tetrahydrofuran-2-ylmethyl]carbamoyl}-4,5-dihydro-2H-furo[2,3-g]indazol-2-yl)methyl]azetidine-1-carboxylate]	60
O=C(NC[C@@H]1CCCO1)c1oc2c(c1C(F)(F)F)-c1nn(C[C@H]3COCCO3)cc1C1(CC1)C2 [Example 168, 2′-[(2S)-1,4-dioxan-2-ylmethyl]-N-[(2S)-tetrahydrofuran-2-ylmethyl]-8′-(trifluoromethyl)-2′,5′-dihydrospiro[cyclopropane-1,4′-furo[2,3-g]indazole]-7′-carboxamide]	10
O=C(NC[C@@H]1COCCO1)c1oc2c(c1C(F)(F)F)-c1nn(C[C@H]3COCCO3)cc1C1(CC1)C2 [Example 169, N-{[(2R)-1,4-dioxan-2-yl]methyl}-2′-{[(2S)-1,4-dioxan-2-yl]methyl}-8′-(trifluoromethyl)-2′,5′-dihydrospiro[cyclopropane-1,4′-furo[2,3-g]indazole]-7′-carboxamide]	13
Cc1c(C(=O)NCC2CCOCC2)oc2c1-c1nn(Cc3ccccn3)cc1CC2 [Example 171]	3690
Cc1c(C(=O)NC[C@@H]2CCCO2)oc2c1-c1nn(Cc3cc(F)ccn3)cc1CC2 [Example 182]	168
Cc1c(C(=O)NC[C@@H]2CCCO2)oc2c1-c1nn(Cc3cccnn3)cc1CC2 [Example 184]	447
Cc1c(C(=O)NC[C@@H]2COCCO2)oc2c1-c1nn(Cc3cccnn3)cc1CC2 [Example 185]	551
CCc1ccc(Cn2cc3c(n2)-c2c(oc(C(=O)NC[C@@H]4CCCO4)c2C)CC3)cn1 [Example 186]	63
CCc1ccc(Cn2cc3c(n2)-c2c(oc(C(=O)NC[C@@H]4COCCO4)c2C)CC3)cn1 [Example 187]	40

Compound	IC50 [nM]
Cc1c(C(=O)NC[C@@H]2CCCO2)oc2c1-c1nn(Cc3ncco3)cc1CC2 [Example 188]	223
Cc1c(C(=O)NC[C@@H]2CCCO2)oc2c1-c1nn(CC3CCOCC3)cc1CC2 [Example 189]	109
Cc1ccc(Cn2cc3c(n2)-c2c(oc(C(=O)NC[C@@H]4COCCO4)c2C(F)(F)F)CC3)cn1 [Example 191]	8
Cc1ccc(Cn2cc3c(n2)-c2c(oc(C(=O)NC[C@@H]4CCCO4)c2C(F)(F)F)CC3)cn1 [Example 192]	6
O=C(NC[C@@H]1COCCO1)c1oc2c(c1C1CC1)-c1nn(C[C@H]3COCCO3)cc1CC2 [Example 193]	32
O=C(NC[C@@H]1CCCO1)c1oc2c(c1C1CC1)-c1nn(C[C@H]3COCCO3)cc1CC2 [Example 194]	30
Cc1c(C(=O)NC[C@@H]2CCCO2)oc2c1-c1nn(Cc3ccncc3)cc1C1(CCC1)C2 [Example 202]	77
Cc1ccc(Cn2cc3c(n2)-c2c(oc(C(=O)NC[C@@H]4CCCO4)c2C)CC32CCC2)nc1 [Example 203]	22
Cc1ccc(Cn2cc3c(n2)-c2c(oc(C(=O)NC[C@@H]4COCCO4)c2C)CC32CC2)cn1 [Example 210]	16
Cc1ccc(Cn2cc3c(n2)-c2c(oc(C(=O)NC[C@@H]4CCCO4)c2C)CC32CC2)cn1 [Example 211]	17
Cc1ccc(Cn2cc3c(n2)-c2c(oc(C(=O)NC[C@@H]4COCCO4)c2C(F)(F)F)CC32CC2)cn1 [Example 212, N-{[(2R)-1,4-dioxan-2-yl]methyl}-2′-[(6-methylpyridin-3-yl)methyl]-8′-(trifluoromethyl)-2′,5′-dihydrospiro[cyclopropane-1,4′-furo[2,3-g]indazole]-7′-carboxamide]	4
Cc1ccc(Cn2cc3c(n2)-c2c(oc(C(=O)NC[C@@H]4CCCO4)c2C(F)(F)F)CC32CC2)cn1 [Example 213, 2′-[(6-methylpyridin-3-yl)methyl]-N-{[(2S)-oxolan-2-yl]methyl}-8′-(trifluoromethyl)-2′,5′-dihydrospiro[cyclopropane-1,4′-furo[2,3-g]indazole]-7′-carboxamide]	7
Cc1ccc(Cn2cc3c(n2)-c2c(oc(C(=O)NC[C@@H]4CCCO4)c2C(F)(F)F)CC32CC2)nc1 [Example 214, 2′-[(5-methylpyridin-2-yl)methyl]-N-{[(2S)-oxolan-2-yl]methyl}-8′-(trifluoromethyl)-2′,5′-dihydrospiro[cyclopropane-1,4′-furo[2,3-g]indazole]-7′-carboxamide]	5
Cc1ccc(Cn2cc3c(n2)-c2c(oc(C(=O)NC[C@@H]4COCCO4)c2C(F)(F)F)CC32CC2)nc1 [Example 215, N-{[(2R)-1,4-dioxan-2-yl]methyl}-2′-[(5-methylpyridin-2-yl)methyl]-8′-(trifluoromethyl)-2′,5′-dihydrospiro[cyclopropane-1,4′-furo[2,3-g]indazole]-7′-carboxamide]	3
O=C(NC[C@@H]1COCCO1)c1oc2c(c1C(F)(F)F)-c1nn(Cc3ccncc3)cc1C1(CC1)C2 [Example 216, N-[(2R)-1,4-Dioxan-2-ylmethyl]-2′-(pyridin-4-ylmethyl)-8′-(trifluormethyl)-2′,5′-dihydrospiro[cyclopropan-1,4′-furo[2,3-g]indazol]-7′-carboxamide]	6
O=C(NC[C@@H]1CCCO1)c1oc2c(c1C(F)(F)F)-c1nn(Cc3ccncc3)cc1C1(CC1)C2 [Example 217, 2′-(Pyridin-4-ylmethyl)-N-[(2S)-tetrahydrofuran-2-ylmethyl]-8′-(trifluormethyl)-2′,5′-dihydrospiro[cyclopropan-1,4′-furo[2,3-g]indazol]-7′-carboxamide]	6
O=C(NC[C@@H]1CCCO1)c1oc2c(c1C(F)(F)F)-c1nn(Cc3ccccn3)cc1C1(CC1)C2 [Example 218, N-{[(2S)-oxolan-2-yl]methyl}-2′-[(pyridin-2-yl)methyl]-8′-(trifluoromethyl)-2′,5′-dihydrospiro[cyclopropane-1,4′-furo[2,3-g]indazole]-7′-carboxamide]	9
O=C(NC[C@@H]1COCCO1)c1oc2c(c1C(F)(F)F)-c1nn(Cc3ccccn3)cc1C1(CC1)C2 [Example 219, N-[(2R)-1,4-Dioxan-2-ylmethyl]-2′-(pyridin-2-ylmethyl)-8′-(trifluormethyl)-2′,5′-dihydrospiro[cyclopropan-1,4′-furo[2,3-g]indazol]-7′-carboxamide]	7
O=C(NC[C@@H]1COCCO1)c1oc2c(c1C(F)(F)F)-c1nn(C[C@@H]3COCCO3)cc1CC2 [Example 220, N,2-bis{[(2R)-1,4-dioxan-2-yl]methyl}-8-(trifluoromethyl)-4,5-dihydro-2H-furo[2,3-g]indazole-7-carboxamide]	18
